# Earlier results as cited in patent US6080760A, “Alpha 1A adrenergic receptor antagonists” (Merck & Co., Inc., priority 1998, dated 2000).
# Tests used:
# [1] = system: adrenergic receptors of the alpha1 subtype; details: reported in WO 92/0073
# [2] = system: prostatic hyperplasia; details: reported in EP 0 204597
SMILES,selective binding to adrenergic receptors of the alpha1 subtype [1],urination in cases of prostatic hyperplasia [2]
COc1cc2nc(N3CCN(C(=O)[C@H]4CCCO4)CC3)nc(N)c2cc1OC [R(+) enantiomer of terazosin],selective ability,–
COc1cc2nc(N(C)CCCNC(=O)C3CCCO3)nc(N)c2cc1OC (centres unmarked) [alfuzosin],–,induce urination
